In patent publication US11969412B2, “Methods and compounds for the treatment or prevention of hypercytokinemia and severe influenza” (Poolbeg Pharma (UK) Limited, priority 2017, dated 2024):
Read-outs that look alike come from different tables or passages of the source.

Columns and labels:
[1] = system: immune cells (PBMCs plus granulocytes stimulated with A549 viral soup); experiment: cells; type: cell-based, human
[2] = system: immune cells (PBMCs); type: cell-based, human
[3] = system: p38MAPK; experiment: Western blotting of HSP27 phosphorylation in HUVEC cells after HBEC viral soup; type: cell-based, human; details: pre-incubation, western blot
Description: For western blotting confluent cells were washed in PBS and lysed in RIPA with protease inhibitor (Sigma-P8340), phosphatase inhibitor cocktails 2 and 3 (Sigma P5726 and P0044) and phosphatase inhibitors Na3VO4 and NaF on ice. […] The membranes were treated with Amersham ECL Prime Western Blotting Detection Reagent (GE/Amersham #RPN2232) and imaged using ChemiDoc™ Touch Imaging System (BIORAD). Analysis was performed using the Image Lab software.
In vitro data were generated from HUVEC cells to test the effect of HBEC viral soup application on p38 activation as measured by western blotting of the phosphorylation status of the p38MAPK downstream signalling target, HSP27.

[4] = system: p38MAPK; experiment: Western blotting of p38MAPK and HSP27 phosphorylation in A549 cells after A549 viral soup; type: cell-based, human; details: western blot
Description: In vitro data were generated from A549 cells to test the effect of A549 viral soup application on p38 activation as measured by western blotting of the phosphorylation status of p38MAPK itself and downstream signalling target, HSP27. For western blotting confluent cells were washed in PBS and lysed in RIPA with protease inhibitor (Sigma-P8340), phosphatase inhibitor cocktails 2 and 3 (Sigma P5726 and P0044) and phosphatase inhibitors Na3VO4 and NaF on ice. Protein concentrations were determined using the Pierce BCA Protein Assay Kit and equal concentrations of each sample created in 4× Laemmli sample buffer (BIO-RAD 161-0747) with 2-mercaptoethanol. Samples were run on a 12% gel and then transferred on to nitrocellulose. Membranes were blocked using 5% milk powder, then hybridised with p38 MAPK rabbit antibody (Cell Signalling Technologies, cat. no. 9212S) and phosphorylated p38 MAPK rabbit antibody (Cell Signalling Technologies, cat. no. 9211S), or HSP27 antibody (Cell signalling Technologies, cat. no. 2402) and phospho-HSP27 antibody (Cell signalling Technologies, cat. no. 9709). Secondary antibodies were anti-rabbit HRP (Cell signalling Technologies catalogue no. CS7074P2) and anti-mouse HRP (Cell signalling, catalogue no. 7076S), respectively. Membranes were stripped for re-probing using Restore™ PLUS Western Blot Stripping Buffer (Life technologies #46430). […]

[5] = system: p38MAPK; experiment: Western blotting of HSP27 phosphorylation in immune cells (PBMCs) after A549 viral soup; type: cell-based, human; details: pre-incubation, western blot
[6] = system: influenza virus; details: cited from earlier work; for survival rate at Day 20 of infection: controls 14%
[7] = system: HBEC cells; experiment: Inflammatory mediator production in HBEC cells after HBEC viral soup (MSD analysis); type: cell-based, human; details: HBECs treated prior to HBEC viral soup
[8] = system: endothelial cells (HUVECs); experiment: cells; type: cell-based, human
[9] = Homo sapiens, A549, read-out: IC50 IL1B
[10] = Homo sapiens, A549, read-out: IC50 IL6
[11] = Homo sapiens, A549, read-out: IC50 IL8
[12] = Homo sapiens, A549, read-out: IC50 TNFa
[13] = Homo sapiens, HUVEC, read-out: IC50 IL10

CC[C@H]1OC(=O)[C@H](C)[C@@H](O[C@H]2C[C@@](C)(OC)[C@@H](O)[C@H](C)O2)[C@H](C)[C@@H](O[C@@H]2O[C@H](C)C[C@H](N(C)C)[C@H]2O)[C@](C)(O)C[C@@H](C)CN(C)[C@H](C)[C@@H](O)[C@]1(C)O [Azithromycin]
iMax IL1B [1]: 50%
iMax IL6 [1]: 45%
iMax IL8 [1]: 46%
iMax TNFa [1]: 63%
IC50 [1, 9]: 0.5 nM
IC50 [1, 10]: 119 nM
IC50 [1, 11]: 0.8 nM
IC50 [1, 12]: 86.9 nM

Cc1cc(F)ccc1-c1nc(NC(CO)CO)nc2c1ccc(=O)n2-c1c(F)cccc1F [Dilmapimod]
A549 viral soup induced release of TNFα, IL-1-β, IL-6 and CXCL8 [2]: significantly attenuate
induction of HSP27 phosphorylation [3]: dose dependently inhibit
induction of both p38MAPK and HSP27 phosphorylation [4]: dose dependently inhibit
induction of HSP27 phosphorylation [5]: dose dependently inhibit

CC[C@H]1OC(=O)[C@H](C)[C@@H](O[C@H]2C[C@@](C)(OC)[C@@H](O)[C@H](C)O2)[C@H](C)[C@@H](O[C@@H]2O[C@H](C)C[C@H](N(C)C)[C@H]2O)[C@](C)(O)C[C@@H](C)C(=O)[C@H](C)[C@@H](O)[C@]1(C)O [EM]
survival rate at Day 20 of infection ([6]; 1.0 mg/kg/d): 42%
survival rate of mice infected with influenza virus ([6]; 3.3 mg/kg/d intraperitoneally, Days 1-6 after infection): significantly improved
survival rate at Day 20 of infection ([6]; 3.3 mg/kg/d): 57%

Cn1cc2c(-c3ccc(F)cc3)c(-c3ccncc3)c(-c3ccc(F)cc3)nc2n1 [Formula III]
production of TNFα and IL-8 [2]: attenuate
release of IL-6 and IP-10 [7]: attenuated
production of IL-8 and IP-10 [8]: attenuate

OCCCn1cc2c(-c3ccc(F)cc3)c(-c3ccncc3)c(-c3ccc(F)cc3)nc2n1 [Formula II]
attenuating the inflammatory response in immune cells, compared with Formula III [2]: consistently better effects than the compound of Formula III
production of MIP-1a and IL-8 (TNFa plus IL-6 as stimulus) and TNFa and IL-8 (A549 virus soup as stimulus) [2]: attenuate
attenuating the inflammatory response in endothelial cells, compared with Formula III [8]: consistently better effects than the compound of Formula III
production of IL-8 and IP-10 [8]: attenuate

C[C@H]1C[C@@H]2[C@H]([C@@H](O)C[C@@]3(C)[C@H]2CC[C@]3(O)C(=O)CO)[C@@]2(C)C=CC(=O)C=C12 [Methyl Prednisolone]
iMax IL1B [1]: 77%
iMax IL6 [1]: 57%
iMax IL8 [1]: 90%
iMax TNFa [1]: 79%
IC50 [1, 9]: 8.4 nM
IC50 [1, 10]: 36.6 nM
IC50 [1, 11]: 8.4 nM
IC50 [1, 12]: 20.2 nM

CNC(=O)c1ccc(C)c(-n2c(C)cc(OCc3ccc(F)cc3F)c(Br)c2=O)c1 [PH797804]
A549 viral soup induced release of TNFα, IL-1-β, IL-6 and CXCL8 [2]: significantly attenuate
iMax IL8 [8]: 86%
iMax IL10 [8]: 88%
iMax MCP1 [8]: 36%
IC50 ([8]; Homo sapiens, HUVEC, read-out: IC50 IL8): 28.9 nM
IC50 [8, 13]: 7.5 nM
IC50 ([8]; Homo sapiens, HUVEC, read-out: IC50 MCP1): 13.1 nM
induction of both p38MAPK and HSP27 phosphorylation [4]: dose dependently inhibit
iMax IL1B [1]: 79%
iMax IL8 [1]: 87%
iMax TNFa [1]: 91%
IC50 [1, 9]: 9.7 nM
IC50 [1, 11]: 2.3 nM
IC50 [1, 12]: 3.9 nM

CCc1ccc(CCOc2ccc(CC3SC(=O)NC3=O)cc2)nc1 (centres unmarked) [Pioglitazone]
iMax IL6 [1]: 41%
iMax IL8 [1]: 37%
IC50 [1, 10]: 0.02 nM
IC50 [1, 11]: 0.1 nM

CC[C@H](C)C(=O)O[C@H]1C[C@H](O)C=C2C=C[C@H](C)[C@H](CC[C@@H](O)C[C@@H](O)CC(=O)O)[C@H]21 [Pravastatin]
iMax IL10 [8]: 35%
IC50 [8, 13]: 78 nM

Nc1ccc2ncnc(NCCc3ccc(Oc4ccccc4)cc3)c2c1 [QNZ (EVP4593)]
iMax IL8 [8]: 60%
iMax IL10 [8]: 72%
iMax MCP1 [8]: 44%
IC50 ([8]; read-out: IC50 IL8): 6.5 nM
IC50 ([8]; read-out: IC50 IL10): 3.3 nM
IC50 ([8]; read-out: IC50 MCP1): 3.84 nM
iMax IL8 [1]: 47%
iMax TNFa [1]: 37%
IC50 ([1]; read-out: IC50 IL8): 0.2 nM
IC50 ([1]; read-out: IC50 TNFa): 43.6 nM

COc1cc(F)c(F)c(Nc2ccc(I)cc2F)c1NS(=O)(=O)C1(C[C@H](O)CO)CC1 [Refametinib]
dose-dependent inhibition of IP10 production [8]: Neither Refametinib nor Selumetinib showed dose-dependent inhibition
levels of IP10 at higher drug concentrations [8]: appeared to increase

O=C(Nc1c(Cl)cncc1Cl)c1ccc(OC(F)F)c(OCC2CC2)c1 [Roflumilast]
iMax IL8 [1]: 31%
iMax TNFa [1]: 74%
IC50 [1, 11]: 0.09 nM
IC50 [1, 12]: 10.8 nM

Selumetinib
dose-dependent inhibition of IP10 production [8]: Neither Refametinib nor Selumetinib showed dose-dependent inhibition
levels of IP10 at higher drug concentrations [8]: appeared to increase
